Literature values as cited in patent US20220310211A1, “NON-TRANSITORY COMPUTER-READABLE STORAGE MEDIUM, INFORMATION PROCESSING APPARATUS, AND INFORMATION PROCESSING METHOD” (FUJITSU LIMITED, priority 2021, published 2022).

Details: PubChem AID 1006; binary Active/Inactive

For `Cc1cccc(Cc2cnc(O[Si](C)(C)C)[nH]2)c1C` [CID603597], which biological activity is on record?
Its biological activity is “Active”.
